According to US11247965B2 (VenatoRx Pharmaceuticals, Inc., priority 2017, dated 2022):

Legend:
[1] = test system: HBV replication in HepAD38 cells; experiment: Anti-HBV activity in HepAD38 cells, extracellular HBV DNA by QPCR; type: cell-based, HBV (genotype D, serotype ayw); conditions: Hepatitis B virus, HePAD38, 168 h, read-out: Anti-HBV EC50, HepAD38 cells, extracellular HBV DNA by QPCR, 7 days of incubation
Outline: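 HepAD38 cells (HepG2 with tet-repressible HBV genotype D genome) seeded overnight, tetracycline removed, then treated 7 days with compounds (half-log dilutions, 30 μM–10 nM; 1:200 from DMSO). Supernatant HBV DNA quantified by QPCR against standard curve; % inhibition vs vehicle, EC50 by 4-parameter fit.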

[2] = In vitro cytotoxicity, MTT cell viability assay in HepG2 cells; type: cell-based; conditions: human, Cytotoxicity CC50
Outline: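 Read-out: MTT formazan absorbance at 492 nm, expressed as % of vehicle signal; CC50 by 4-parameter non-linear regression. Parental HepG2, 20,000 cells/well, treated 7 days with compound from 30 μM down to 1.0 nM.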

SMILES | EC50 [1] | CC50 at 7 days [2]
Cc1cc(NC(=O)c2ccc(F)c(C(F)(F)C(=O)N3[C@H](C)CNC[C@@H]3C)c2)ccc1F [Example 214, 3-(2-((2S,6R)-2,6-dimethylpiperazin-1-yl)-1,1-difluoro-2-oxoethyl)-4-fluoro-N-(4-fluoro-3-methylphenyl)benzamide] | < 5 µM | 5 to 30 µM
Cc1cc(NC(=O)c2ccc(F)c(C(F)(F)C(=O)NC34CC5CC(CC(O)(C5)C3)C4)c2)ccc1F [Example 272, 3-(1,1-difluoro-2-(((1r,3s,5R,7S)-3-hydroxyadamantan-1-yl)amino)-2-oxoethyl)-4-fluoro-N-(4-fluoro-3-methylphenyl)benzamide] | 5 to 30 µM | 5 to 30 µM
O=C(Nc1ccc(F)c(F)c1)c1ccc(F)c(C(F)(F)C(=O)N2CCOCC2)c1 [Example 4, 3-(1,1-difluoro-2-morpholino-2-oxoethyl)-N-(3,4-difluorophenyl)-4-fluorobenzamide] | 5 to 30 µM | 5 to 30 µM
Cc1ccc(C(=O)Nc2ccc(F)c(F)c2)cc1C(F)(F)C(=O)N1CCC(O)CC1 [Example 10, 3-(1,1-difluoro-2-(4-hydroxypiperidin-1-yl)-2-oxoethyl)-N-(3,4-difluorophenyl)-4-methylbenzamide] | 5 to 30 µM | 5 to 30 µM
Cc1cc(NC(=O)c2ccc(F)c(C(F)(F)C(=O)N3CCC(O)(CO)CC3)c2)cc(F)c1F [Example 248, 3-(1,1-difluoro-2-(4-hydroxy-4-(hydroxymethyl)piperidin-1-yl)-2-oxoethyl)-N-(3,4-difluoro-5-methylphenyl)-4-fluorobenzamide] | < 5 µM | 5 to 30 µM
Cc1cc(NC(=O)c2ccc(F)c(C(F)(F)C(=O)N3[C@@H]4CCC[C@H]3C[C@H](O)C4)c2)ccc1F [Example 217, 3-(1,1-difluoro-2-((1R,3s,5S)-3-hydroxy-9-azabicyclo[3.3.1]nonan-9-yl)-2-oxoethyl)-4-fluoro-N-(4-fluoro-3-methylphenyl)benzamide] | < 5 µM | 5 to 30 µM
Cc1cc(NC(=O)c2cc(F)cc(C(F)(F)C(=O)N3CCC(O)CC3)c2)ccc1F [Example 93, 3-(1,1-difluoro-2-(4-hydroxypiperidin-1-yl)-2-oxoethyl)-5-fluoro-N-(4-fluoro-3-methylphenyl)benzamide] | < 5 µM | 5 to 30 µM
Cc1cc(NC(=O)c2ccn(C)c2C(F)(F)C(=O)N2CCC(O)CC2)ccc1F [Example 96, 2-(1,1-difluoro-2-(4-hydroxypiperidin-1-yl)-2-oxoethyl)-N-(4-fluoro-3-methylphenyl)-1-methyl-1H-pyrrole-3-carboxamide] | 5 to 30 µM | > 30 µM
Cc1cc(NC(=O)c2ccc(F)c(C(F)(F)C(=O)NC34CC5CC(CC3C5)C4)c2)ccc1F [Example 271, 3-(1,1-difluoro-2-(((2R,3as,5S,6as)-hexahydro-2,5-methanopentalen-3a(1H)-yl)amino)-2-oxoethyl)-4-fluoro-N-(4-fluoro-3-methylphenyl)benzamide] | 5 to 30 µM | 5 to 30 µM
Cc1cc(NC(=O)c2ccc(F)c(C(F)(F)C(=O)N3CCC(N)CC3)c2)ccc1F [Example 230, 3-(2-(4-aminopiperidin-1-yl)-1,1-difluoro-2-oxoethyl)-4-fluoro-N-(4-fluoro-3-methylphenyl)benzamide] | < 5 µM | 5 to 30 µM
Cc1cc(NC(=O)c2cn(C)c(C(F)(F)C(=O)NC(C)(C)CO)c2C)ccc1F [Example 129, 5-(1,1-difluoro-2-((1-hydroxy-2-methylpropan-2-yl)amino)-2-oxoethyl)-N-(4-fluoro-3-methylphenyl)-1,4-dimethyl-1H-pyrrole-3-carboxamide] | < 5 µM | > 30 µM
Cc1cc(NC(=O)c2cc(C(F)(F)C(=O)N3CCC(O)CC3)ccc2F)ccc1F [Example 90, 5-(1,1-difluoro-2-(4-hydroxypiperidin-1-yl)-2-oxoethyl)-2-fluoro-N-(4-fluoro-3-methylphenyl)benzamide] | < 5 µM | 5 to 30 µM
